Reference: PubChem BioAssay AID330 (DTP/NCI, 2004)
Several values for one entry are separate records, joined by “and”; a condition that tells them apart may be missing. Equal entries are not always repeated. Inconclusive results and toxic doses are left out. How the source made its calls: active means survival T/C of 150% or more; inactive means T/C below 125% in these data.

System: P388 leukemia ip, CD2F1 mice, survival T/C
Assay: NCI In Vivo Anticancer Drug Screen. Data for tumor model P388 Leukemia (intraperitoneal) in CD2F1 (CDF1) mice
Details: endpoint: median survival time, higher = longer survival
Outline: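 Mice carrying the transplanted tumor received test compound or vehicle. Survival was recorded in each group, and the value is the treated-group measurement divided by that of the vehicle-treated control group.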

[1] = dose: 60.0 mg/kg/injection, schedule: Q01DX005 (ip), vehicle: saline with Tween-80
[2] = dose: 50.0 mg/kg/injection, schedule: Q01DX009 (ip), vehicle: saline with Tween-80
[3] = dose: 100.0 mg/kg/injection, schedule: Q01DX009 (ip), vehicle: saline with Tween-80
[4] = dose: 50.0 mg/kg/injection, schedule: Q01DX005 (ip), vehicle: Klucel (hydroxypropylcellulose) (HPC)
[5] = dose: 100.0 mg/kg/injection, schedule: Q01DX005 (ip), vehicle: Klucel (hydroxypropylcellulose) (HPC)

Measured: T/C

O=C(Cc1nc2ccc(Cl)cc2[nH]c1=O)c1ccccc1
inactive: [1] 112 % of control | dose: 120.0 mg/kg/injection, schedule: Q01DX005 (ip), vehicle: saline with Tween-80 108 % of control | dose: 240.0 mg/kg/injection, schedule: Q01DX005 (ip), vehicle: saline with Tween-80 107 % of control

COC(=O)C1C2CC3c4[nH]c5c([N+](=O)[O-])c(OC)ccc5c4CCN3CC2CC(OC(=O)c2cc(OC)c(OC)c(OC)c2)C1OC (stereo unspecified)
inactive: dose: 9.38 mg/kg/injection, schedule: Q01DX005 (ip), vehicle: Klucel (hydroxypropylcellulose) (HPC) 98 % of control | dose: 18.75 mg/kg/injection, schedule: Q01DX005 (ip), vehicle: Klucel (hydroxypropylcellulose) (HPC) 95 % of control | dose: 37.5 mg/kg/injection, schedule: Q01DX005 (ip), vehicle: Klucel (hydroxypropylcellulose) (HPC) 96 % of control | dose: 75.0 mg/kg/injection, schedule: Q01DX005 (ip), vehicle: Klucel (hydroxypropylcellulose) (HPC) 86 % of control

Cc1ncc(CO)c(CO)c1OCC(O)CN1CCN(C(=O)c2ccccc2)CC1 (stereo unspecified)
inactive: dose: 60.0 mg/kg/injection, schedule: Q01DX005 (ip), vehicle: saline 101 % of control | dose: 120.0 mg/kg/injection, schedule: Q01DX005 (ip), vehicle: saline 104 % of control

NCCSc1cc(O)c2c(c1N)C(=O)c1ccccc1C2=O
inactive: dose: 12.5 mg/kg/injection, schedule: Q01DX009 (ip), vehicle: Klucel (hydroxypropylcellulose) (HPC) 106 % of control | dose: 25.0 mg/kg/injection, schedule: Q01DX009 (ip), vehicle: Klucel (hydroxypropylcellulose) (HPC) 104 % of control | dose: 50.0 mg/kg/injection, schedule: Q01DX009 (ip), vehicle: Klucel (hydroxypropylcellulose) (HPC) 106 % of control | dose: 100.0 mg/kg/injection, schedule: Q01DX009 (ip), vehicle: Klucel (hydroxypropylcellulose) (HPC) 105 % of control

Nc1cccc(S(=O)(=O)Nc2c(N)nc(SCC(=O)O)[nH]c2=O)c1
inactive: dose: 60.0 mg/kg/injection, schedule: Q01DX005 (ip), vehicle: Klucel (hydroxypropylcellulose) (HPC) 100 % of control | dose: 120.0 mg/kg/injection, schedule: Q01DX005 (ip), vehicle: Klucel (hydroxypropylcellulose) (HPC) 98 % of control | dose: 240.0 mg/kg/injection, schedule: Q01DX005 (ip), vehicle: Klucel (hydroxypropylcellulose) (HPC) 98 % of control

COc1cc(OC)c(C(=O)/C=C/c2ccncc2)cc1C(=O)O
inactive: dose: 50.0 mg/kg/injection, schedule: Q01DX009 (ip), vehicle: suspension in saline 114 % of control and 119 % of control | dose: 100.0 mg/kg/injection, schedule: Q01DX009 (ip), vehicle: suspension in saline 123 % of control and 124 % of control

COc1cccc(CN2CCN(/N=C/c3c4c(O)c5c(O)c(C)c6c(c5c3O)C(=O)C(C)(O/C=C/C(OC)C(C)C(OC(C)=O)C(C)C(O)C(C)C(O)C(C)/C=C/C=C(C)C(=O)N4)O6)CC2)c1 (stereo unspecified)
inactive: dose: 12.5 mg/kg/injection, schedule: Q01DX009 (ip), vehicle: saline with Tween-80 120 % of control | dose: 25.0 mg/kg/injection, schedule: Q01DX009 (ip), vehicle: saline with Tween-80 118 % of control | [2] 112 % of control and 117 % of control | [3] 121 % of control

O=c1oc(-c2ccccc2)cc2ccccc12
inactive: [4] 100 % of control and 105 % of control | [5] 99 % of control and 109 % of control | dose: 200.0 mg/kg/injection, schedule: Q01DX005 (ip), vehicle: Klucel (hydroxypropylcellulose) (HPC) 99 % of control and 98 % of control | dose: 400.0 mg/kg/injection, schedule: Q01DX005 (ip), vehicle: Klucel (hydroxypropylcellulose) (HPC) 100 % of control and 93 % of control

C[c-]1[c-][c-][c-][c-]1.[C-]#[O+].[C-]#[O+].[C-]#[O+].[Mn]
inactive: dose: 12.5 mg/kg/injection, schedule: Q01DX005 (ip), vehicle: Klucel (hydroxypropylcellulose) (HPC) 94 % of control | dose: 25.0 mg/kg/injection, schedule: Q01DX005 (ip), vehicle: Klucel (hydroxypropylcellulose) (HPC) 95 % of control | [4] 99 % of control | [5] 99 % of control

Cc1c([O-])on[n+]1Cc1ccccc1
inactive: [1] 102 % of control

C=CCOc1cc2c(cc1C(C)c1ccc(F)cc1)OCO2 (stereo unspecified)
inactive: dose: 50.0 mg/kg/injection, schedule: Q01DX005 (ip), vehicle: saline with Tween-80 100 % of control | dose: 100.0 mg/kg/injection, schedule: Q01DX005 (ip), vehicle: saline with Tween-80 104 % of control | dose: 200.0 mg/kg/injection, schedule: Q01DX005 (ip), vehicle: saline with Tween-80 100 % of control

CCOC(=O)Nc1ccc2nc(N3CCCCCC3)sc2c1
inactive: [2] 101 % of control | [3] 100 % of control | dose: 200.0 mg/kg/injection, schedule: Q01DX009 (ip), vehicle: saline with Tween-80 102 % of control

CCC1([N+](=O)[O-])CN(C)CC2CCCCN2C1 (stereo unspecified)
inactive: dose: 25.0 mg/kg/injection, schedule: Q04DX002 (ip), vehicle: water 95 % of control | dose: 50.0 mg/kg/injection, schedule: Q04DX002 (ip), vehicle: water 101 % of control | dose: 100.0 mg/kg/injection, schedule: Q04DX002 (ip), vehicle: saline 100 % of control | dose: 100.0 mg/kg/injection, schedule: Q04DX002 (ip), vehicle: water 103 % of control
